The values that follow are results of earlier work, collected in patent US5849696A, “Composition and method of treating hepatitis C” (The Board of Governors of Wayne State University, priority 1993, dated 1998).

In one data set the test system is HCV. As to conditions: in vivo.
The subject of data set [1] is Woodchuck Hepatitis Virus. As to conditions: woodchuck infected with Woodchuck Hepatitis Virus.
Data set [2] deals with nonsmall cell lung cancer.
Data set [3] has as its system natural killer-cell activity. As to conditions: THNα1 together with interferon, immunosuppressed mice.
A further data set relates to hepatitis B virus (HBV). As to conditions: treated for a year.
Data set [4] relates to chronic hepatitis C (NANB hepatitis).

Like-named read-outs stand apart in the source and are kept apart here. Where no end group is shown, it is not given here.

Turning to `Nc1nc2c(ncn2COCCO)c(=O)[nH]1` [acyclovir], the “effect on HCV-related diseases” value in the data set on HCV is “ineffective”.

On to “Thymosin α-1 (SDAAVDTSSEITTKDLKEKKEVVEEAEN; ends and bridges not checked; UniProt P06454 2-29, looked up) [THNα1]”, for which, in [1], the clinical parameters entry is “no improvement” and the “viral DNA replication” value is “suppressed viral DNA replication”. Moreover, the immune function result in data set [2] (after radiotherapy) is “some restoration of radiation-suppressed immune function”. The “relapse-free survival and overall survival” value in [2] (both THNα1 treatment groups versus placebo group) is listed as “greater”. Also, the T-cell numbers entry in [2] (human, in vivo) is on record as “no increase”. The “effect on natural killer-cell activity” value in [3] is “synergistic effect”. In addition, in the data set on influenza vaccine (drug recipients), the “clinical or biochemical toxicity” value is listed as “No clinical or biochemical toxicity was observed”. Moreover, in the data set on influenza vaccine (six weeks post-vaccine, subcutaneously twice weekly), the “levels of antibody to influenza” value is given as “higher levels of antibody to influenza than controls”. Besides, in the data set on human lymphocytes, the interleukin-2 receptor expression result was “increase”; the “production of interferon-α, interferon-γ and interleukin-2” value was “promote production”. Moreover, the “patients with reduced levels of serum HBV DNA” value with hepatitis B virus (HBV) (pooled THNα1 (5 patients) and TF-5 (2 patients)) was 6 of the 7. In addition, in the data set with hepatitis B virus (HBV) (pooled THNα1 and TF-5 patients), the “patients initially positive for serum HBsAg who subsequently cleared this antigen” value is 5 of 6. Further, the “serum ALT” value in the data set on hepatitis B virus (HBV) (THNα1 (5 patients) or TF-5 (2 patients)) is on record as “marked decrease”.

Regarding interferon α, the “mean serum ALT levels during the 24 week treatment period” value with chronic NANB hepatitis (1 MU three times a week) was “decreased”. The “proportion of patients with normal ALT levels” value in the data set with chronic NANB hepatitis (at 24 weeks, 1 MU group) is on record as 45%; in the data set on chronic NANB hepatitis (at 24 weeks, 3 MU group), 39%; in the data set with chronic NANB hepatitis (at week 48, 1 MU group), 20%; with chronic NANB hepatitis (at week 48, 3 MU group), 28%. Also, the “repeat liver biopsy, severity of histological changes” value in the data set on chronic NANB hepatitis (higher dose group (3 MU)) was “significant decrease in the severity of histological changes”. Further, the “relapse in disease activity when interferon was stopped” value in the data set on chronic NANB hepatitis (responders) is “approximately half of the responders”. Also, the figures for the “relapse within six months after the completion of treatment” value in data set [4] (1 MU) and in data set [4] (3 MU) were 44% and 51%, respectively. Also, in data set [4] (1 MU three times weekly for 24 weeks, nine of sixteen patients), the “serum ALT response” value was 56%. Further, in data set [4] (3 MU), the liver histology result is given as “histologic improvement”. Moreover, the “serum ALT level became completely normal” value in data set [4] (3 MU three times weekly for 24 weeks, 22 of the 26 patients who responded) is given as 85%. The “mean serum ALT and histological features of the liver” value in the data set on chronic HCV infection (2 MU subcutaneously three times weekly for six months) is reported as “improved significantly”. In addition, the “complete response (decline in mean serum ALT to the normal range during therapy)” value with chronic HCV infection (2 MU subcutaneously three times weekly for six months, ten of twenty-one patients) is on record as 48%. Also, the “further patients with decrease in mean ALT of more than 50%” value with chronic HCV infection (2 MU three times weekly for six months) is on record as “three”. In addition, the “patients still with normal serum ALT values” with chronic HCV infection (six to twelve months after discontinuation of therapy, two patients) is given as 10%.
